The numbers were not newly measured in patent US7407949B2, “Benzamide derivatives as oxytocin agonists and vasopressin antagonists” (priority 2003, dated 2008), which cites them from elsewhere.

The series deals with T1, V1a vasopressin receptor (Homo sapiens, UniProt P37288).
T1 construct: host or cells: patients (in vivo clinical study)
As to conditions: dysmenorrhea patients, compared to placebo.

The structures appear in SMILES notation.

T1 sequence (P37288 whole entry): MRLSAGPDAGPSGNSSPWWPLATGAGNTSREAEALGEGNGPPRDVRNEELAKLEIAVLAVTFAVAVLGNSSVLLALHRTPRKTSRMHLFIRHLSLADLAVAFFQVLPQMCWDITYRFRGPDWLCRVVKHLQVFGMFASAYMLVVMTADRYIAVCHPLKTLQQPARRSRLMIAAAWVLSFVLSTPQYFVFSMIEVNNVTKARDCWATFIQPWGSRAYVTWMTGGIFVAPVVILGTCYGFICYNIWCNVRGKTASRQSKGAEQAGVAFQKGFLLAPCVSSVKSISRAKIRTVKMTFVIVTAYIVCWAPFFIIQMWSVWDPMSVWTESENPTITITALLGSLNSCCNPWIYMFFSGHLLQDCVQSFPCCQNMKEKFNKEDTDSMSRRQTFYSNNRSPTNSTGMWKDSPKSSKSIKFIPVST

Consider `COc1ccc(S(=O)(=O)N2c3ccc(Cl)cc3[C@](O)(c3ccccc3Cl)[C@@H]2C(=O)N2CCC[C@H]2C(N)=O)cc1OC` [SR49059], for which the “amount of additional pain-killer taken” value is “dose-related decrease in the amount of additional pain-killer taken” and the pain result is given as “dose-related decrease in pain”.
